Data on 28 compounds can be found in US12180226B2, “Spirotricycle RIPK1 inhibitors and methods of uses thereof” (Merck Sharp & Dohme LLC, priority 2021, dated 2024).

Counter-ions that a name gives are not always drawn.

Chain of RIPK1 (recombinant GST-RIPK1 kinase domain, residues 1-327) (Q13546 1-327): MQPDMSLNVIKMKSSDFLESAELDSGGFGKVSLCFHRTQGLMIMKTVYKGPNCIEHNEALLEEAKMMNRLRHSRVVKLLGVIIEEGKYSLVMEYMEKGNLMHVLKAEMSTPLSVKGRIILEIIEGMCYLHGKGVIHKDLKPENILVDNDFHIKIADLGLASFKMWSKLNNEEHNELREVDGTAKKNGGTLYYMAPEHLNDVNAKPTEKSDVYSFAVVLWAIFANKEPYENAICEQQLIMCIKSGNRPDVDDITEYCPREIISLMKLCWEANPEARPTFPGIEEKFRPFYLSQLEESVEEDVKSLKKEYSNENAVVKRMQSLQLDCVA

The target of the experiment is RIPK1 (recombinant GST-RIPK1 kinase domain, residues 1-327) (Homo sapiens (Human), UniProt Q13546). The experiment is described as follows: RIPK1-ADP-Glo Enzymatic Assay. The experiment is classed as biochemical. The following applies: ADP-Glo; 25 nM GST-RIPK1, 300 μM ATP; assay lower limit ~25 nM; read-out: RIPK1 V0 Ec50. In a few lines:
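Inhibition of ADP formation was measured after compound and enzyme (25 nM) were pre-incubated for 30 minutes at ambient temperature and the kinase reaction ran for 150 minutes at 300 μM ATP with dephosphorylated MBP substrate. EC50 values come from ten-point curves fitted non-linearly.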
For orientation: ADP-Glo first removes unused ATP, then detects ADP through luciferase.
As for `Cn1nccc1C(=O)N1CCC2(CC1)O[C@@H]1CC[C@@H](c3cc(F)cc(F)c3)N1C2=O` [Example 5.38, (5′S,7a′R)-5′-(3,5-difluoro-phenyl)-1-(1-methyl-1H-pyrazole-5-carbonyl)tetra-hydro-3′H-spiro[piperi-dine-4,2′-pyrrolo[2,1-b]oxazol]-3′-one], the EC50 was 103 nM.
In the case of `O=C(c1ccccc1)N1CCC2(CC1)O[C@@H]1CC[C@@H](c3ccc(F)cc3F)N1C2=O` [Example 17.14, (5′S,7a′R)-1-(benzenecarbonyl)-5′-(2,4-difluorophenyl)tetrahydro-3′H-spiro[piperidine-4,2′-pyrrolo[2,1-b][1,3]oxazol]-3′-one], the EC50 was less than 25 nM.
The result for `CC(=O)c1ccc(N2CCC3(CC2)O[C@@H]2CC[C@@H](c4ccccc4)N2C3=O)n2ncnc12` [Example 4.270, (5′S,7a′R)-1-(8-acetyl[1,2,4]triazolo[1,5-a]pyridin-5-yl)-5′-phenyltetrahydro-3′H-spiro[piperidine-4,2′-pyrrolo[2,1-b] [1,3]oxazol]-3′-one] reads less than 25 nM; that for `Cc1ccc(F)c(C(=O)N2CCC3(CC2)O[C@@H]2CC[C@@H](c4ccccc4F)N2C3=O)c1` [Example 1.17, (5′S,7a′R)-1-(2-fluoro-5-methylbenzoyl)-5′-(2-fluorophenyl)tetrahydro-3′H-spiro[piperidine-4,2′-pyrrolo[2,1-b]oxazol]-3′-one], less than 25 nM; that for `CN(C)C(=O)c1ccc(N2CCC3(CC2)O[C@@H]2CC[C@@H](c4ccccc4)N2C3=O)nc1` [Example 4.167, N,N-dimethyl-6-[(5′S,7a′R)-3′-oxo-5′-phenyltetrahydro-1H,3′H-spiro[piperidine-4,2′-pyrrolo[2,1-b] [1,3]oxazol]-1-yl]pyridine-3-carboxamide], 259 nM.
Consider `CC(C)(O)C#Cc1cccc(C(=O)N2CCC3(CC2)O[C@@H]2CC[C@@H](c4cc(F)cc(F)c4)N2C3=O)c1` [Example 5.24, (5′S,7a′R)-5′-(3,5-difluoro-phenyl)-1-(3-(3-hydroxy-3-methylbut-1-yn-1-yl)-benzoyl)tetrahydro-3′H-spiro[piperidine-4,2′-pyrrolo[2,1-b]oxazol]-3′-one], for which the concentration giving a half-maximal response (EC50) is less than 25 nM.
The result for `CSc1cc(N2CCC3(CC2)O[C@@H]2CC[C@@H](c4ccccc4)N2C3=O)ncn1` [Example 4.27, (5′S,7a′R)-1-[6-(methylsulfanyl)pyrimidin-4-yl]-5′-phenyltetrahydro-3′H-spiro[piperidine-4,2′-pyrrolo[2,1-b] [1,3]oxazol]-3′-one] reads 18 nM; that for `Cc1nocc1C(=O)N1CCC2(CC1)O[C@@H]1CC[C@@H](c3cc(F)cc(F)c3)N1C2=O` [Example 5.33, (5′S,7a′R)-5′-(3,5-difluoro-phenyl)-1-(3-methylisoxa-zole-4-carbonyl)tetrahydro-3′H-spiro[piperidine-4,2′-pyrrolo[2,1-b]oxazol]-3′-one], 189 nM.
Turning to `O=C1N2[C@@H](CC[C@H]2c2ccccc2)OC12CCN(c1ccc(C3COC3)c3ccnn13)CC2` [Example 18.2, (5′S,7a′R)-1-[4-(oxetan-3-yl)pyrazolo[1,5-a]pyridin-7-yl]-5′-phenyltetrahydro-3′H-spiro[piperidine-4,2′-pyrrolo[2,1-b][1,3]oxazol]-3′-one], the EC50 came to 27.6 nM.
For the compound `O=C1N2[C@@H](CC[C@H]2c2cc(F)cc(F)c2)OC12CCN(c1nccc3nccn13)CC2` [Example 4.82, (5′S,7a′R)-5′-(3,5-difluorophenyl)-1-(imidazo[1,2-c]pyrimidin-5-yl)tetrahydro-3′H-spiro[piperidine-4,2′-pyrrolo[2,1-b]oxazol]-3′-one, TFA salt], the EC50 turned out to be 25 nM.
The result for `O=C1N2[C@@H](CC[C@H]2c2cc(F)cc(F)c2)OC12CCN(C(c1ccccc1)C(F)F)CC2` (stereo partly drawn) [Example 22.1, (5′S,7a′R)-1-(2,2-Difluoro-1-phenylethyl)-5′-(3,5-difluorophenyl)tetrahydro-3′H-spiro[piperidine-4,2′-pyrrolo[2,1-b]oxazol]-3′-one] reads 221 nM; that for `O=C1N2[C@@H](CC[C@H]2c2ccccc2F)OC12CN(c1cc(-c3ccccc3)no1)C2` [Example 11.35, (5′S,7a′R)-5′-(2-fluorophenyl)-1-(3-phenyl-1,2-oxazol-5-yl)tetrahydro-3′H-spiro[azetidine-3,2′-pyrrolo[2,1-b][1,3]oxazol]-3′-one], 34.5 nM.
In the case of `O=C(c1cc(F)c(F)cc1F)N1CCC2(CC1)O[C@@H]1CC[C@@H](c3cc(F)cc(F)c3)N1C2=O` [Example 5.4, (5′S,7a′R)-5′-(3,5-difluoro-phenyl)-1-(2,4,5-trifluoro-benzene-1-carbonyl)tetra-hydro-3′H-spiro[piperi-dine-4,2′-pyrrolo[2,1-b] [1,3]oxazol]-3′-one] it was less than 25 nM; in that of `Cc1ncc([C@@H]2CC[C@H]3OC4(CCN(C(=O)c5ccccc5)CC4)C(=O)N32)cc1F` [Example 2.1, (5′S,7a′R)-1-benzoyl-5′-(5-fluoro-6-methylpyridin-3-yl)tetrahydro-3′H-spiro[piperidine-4,2′-pyrrolo[2,1-b]oxazol]-3′-one, TFA salt.], 76.5 nM.
Take `COc1cccc(C(=O)N2CCC3(CC2)O[C@@H]2CC[C@@H](c4ccccc4)N2C3=O)c1` [Example 6.155, (5′S,7a′R)-1-(3-methoxybenzene-1-carbonyl)-5′-phenyl-tetrahydro-3′H-spiro [piperidine-4,2′-pyrrolo[2,1-b][1,3]oxazol]-3′-one]: the EC50 is less than 25 nM.
`Nc1nnc(N2CCC3(CC2)O[C@@H]2CC[C@@H](c4ccccc4)N2C3=O)s1` [Example 11.23, (5′S,7a′R)-1-(5-amino-1,3,4-thiadiazol-2-yl)-5′-phenyltetrahydro-3′H-spiro[piperidine-4,2′-pyrrolo[2,1-b][1,3]oxazol]-3′-one]: the 50% effective concentration (EC50) amounted to 306 nM.
As to `O=C(c1cc(F)c(F)cc1F)N1CCC2(CC1)O[C@@H]1CC[C@@H](c3ccccc3)N1C2=O` [Example 5.10, (5′S,7a′R)-5′-phenyl-1-(2,4,5-trifluorobenzene-1-carbonyl)tetrahydro-3′H-spiro[piperidine-4,2′-pyrrolo[2,1-b][1,3]oxazol]-3′-one], the half-maximal effective concentration (EC50) is less than 25 nM.
For the compound `O=C(c1ccccc1)N1CCC2(CC1)O[C@@H]1CC[C@@H](c3ccc(F)cn3)N1C2=O` [Example 17.6, (5′S,7a′R)-1-benzoyl-5′-(5-fluoropyridin-2-yl)tetrahydro-3′H-spiro[piperidine-4,2′-pyrrolo[2,1-b]oxazol]-40′-one, TFA salt], the concentration for a half-maximal effect (EC50) was determined as 94.4 nM.
For `CCn1nccc1C(=O)N1CCC2(CC1)O[C@@H]1CC[C@@H](c3cc(F)cc(F)c3)N1C2=O` [Example 6.37, (5′S,7a′R)-5′-(3,5-difluorophenyl)-1-(1-ethyl-1H-pyrazole-5-carbonyl)tetrahydro-3′H-spiro[piperidine-4,2′-pyrrolo[2,1-b] [1,3]oxazol]-3′-one], the 50% effective concentration (EC50) was 230 nM.
Turning to `O=C1N2[C@@H](CC[C@H]2c2ccccc2)OC12CCN(c1ncnc3ccsc13)CC2` [Example 4.37, (5′S,7a′R)-5′-phenyl-1-(thieno[3,2-d]pyrimidin-4-yl)tetrahydro-3′H-spiro[piperidine-4,2′-pyrrolo[2,1-b] [1,3]oxazol]-3′-one], the concentration for a half-maximal effect (EC50) was less than 25 nM.
Regarding `N#Cc1cc(N2CCC3(CC2)O[C@@H]2CC[C@@H](c4ccccc4F)N2C3=O)ncn1` [Example 4.104, 6-((5′S,7a′R)-5′-(2-fluorophenyl)-3′-oxotetrahydro-3′H-spiro[piperidine-4,2′-pyrrolo[2,1-b]oxazol]-1-yl)pyrimidine-4-carbonitrile], the EC50 is 33.9 nM.
As for `O=C(c1nc(Br)ccc1F)N1CCC2(CC1)O[C@@H]1CC[C@@H](c3cc(F)cc(F)c3)N1C2=O` [Example 6.82], the half-maximal effective concentration (EC50) was less than 25 nM.
As to `COc1cnc(N2CCC3(CC2)O[C@@H]2CC[C@@H](c4cc(F)cc(F)c4)N2C3=O)nc1` [Example 4.64, (5′S,7a′R)-5′-(3,5-difluorophenyl)-1-(5-methoxypyrimidin-2-yl)tetrahydro-3′H-spiro[piperidine-4,2′-pyrrolo[2,1-b] [1,3]oxazol]-3′-one], the EC50 stood at 80.7 nM.
For `O=C1N2[C@@H](CC[C@H]2c2ccccc2)OC12CCN(c1ccc(C3CC3)cn1)CC2` [Example 11.19, (5′S,7a′R)-1-(5-cyclopropylpyridin-2-yl)-5′-phenyltetrahydro-3′H-spiro[piperidine-4,2′-pyrrolo[2,1-b][1,3]oxazol]-3′-one], the EC50 stood at 624 nM.
As to `C#Cc1cccc(C(=O)N2CCC3(CC2)O[C@@H]2CC[C@@H](c4cccc(F)c4)N2C3=O)c1` [Example 6.123, (5′S,7a′R)-1-(3-ethynylbenzene-1-carbonyl)-5′-(3-fluoro-phenyl)tetrahydro-3′H-spiro[piperidine-4,2′-pyrrolo[2,1-b][1,3]oxazol]-3-one], the EC50 was less than 25 nM.
Regarding `O=C(c1c(Cl)nc2ccccn12)N1CCC2(CC1)O[C@@H]1CC[C@@H](c3cc(F)cc(F)c3)N1C2=O` [Example 6.31, (5′S,7a′R)-1-(2-chloroimidazo[1,2-a]pyridine-3-carbonyl)-5′-(3,5-difluorophen-yl)tetrahydro-3′H-spiro[piperidine-4,2′-pyrrolo[2,1-b][1,3]oxazol]-3′-one], the EC50 was determined as 36.5 nM.
On to `O=C(c1ccccc1)N1CCC2(O[C@@H]3CC[C@@H](c4ccccc4)N3C2=O)C(F)C1` (single isomer, unassigned) [Example 2.3, (3[S or R],4[R or S], 5′S,7a′R)-1-benzoyl-3-fluoro-5′-phenyltetrahydro-3′H-spiro[piperidine-4,2′-pyrrolo[2,1-b]oxazol]-3′-one], for which the EC50 was less than 25 nM.
For the compound `O=C1N2[C@@H](CC[C@H]2c2ccccc2)OC12CCN(c1ccnc3ccnn13)CC2` [Example 4.28, (5′S,7a′R)-5′-phenyl-1-(pyrazolo[1,5-a]pyrimidin-7-yl)tetrahydro-3′H-spiro[piperidine-4,2′-pyrrolo[2,1-b] [1,3]oxazol]-3′-one], the EC50 is less than 25 nM.

The term EC50 denotes the midpoint of the concentration-response curve.
